Marks after values point to notes of the source that are not given here.
Key:
[1] = system: thrombus (rat arteriovenous bypass thrombolysis model); test: Thrombolytic activity via intravenous administration, rat arteriovenous bypass thrombolysis model; type: in vivo, male SD rats; details: rat; for Weight reduction in thrombus: intravenous injection, 5Aa-p 0.1 nmol/kg, 1 hour, n = 10
Protocol: 200-220 g male SD rats were anesthetized with 20% urethane solution (6 mL/kg, ip). Anesthetized rats were fixed in a supine position, and the right common carotid artery was separated, clamped at the proximal end with an arterial clip, and penetrated with a suture at the proximal and distal ends, respectively. The suture at the distal end is clipped tightly by a hemostatic clamp at the skin/fur. Cannulation was performed at the distal end, the arterial clamp was loosened, and about 1 ml arterial blood was discharged into a 1 mL EP vial. 0.1 mL rat arterial blood was injected into a vertically fixed glass tube (15 mm in length, with an inner diameter of 2.5 mm and an outer diameter of 5.0 mm, sealed with a rubber stopper at the bottom), into which was immediately inserted a thrombus immobilization screw made of stainless steel. […] 40 min after the blood coagulated, the rubber stopper at the bottom of the glass tube was removed, the stem of the thrombus immobilization screw was fixed by forceps, and the thrombus-wrapped thrombus immobilization screw was carefully taken out from the glass tube and precisely weighted.
A bypass cannula was composed of 3 segments. The middle segment was a polyethylene tube having a length of 60 mm and an inner diameter of 3.5 mm. The segments on both ends were similar polyethylene tubes having a length of 100 mm, an inner diameter of 1 mm and an outer diameter of 2 mm, one end of which was pulled to form a tip, with an outer diameter of 1.0 mm (used in inserting into the rat carotid artery or vein), the other end of which was sheathed by a polyethylene tube having a length of 7 mm and an outer diameter of 3.5 mm (thickened, used in inserting into the polyethylene tube of the middle segment). The inner wall of the 3-segment cannula was entirely silylated. The thrombus-wrapped thrombus immobilization screw was placed into the polyethylene tube of the middle segment, and both ends of the tube sheath the thickened ends of two polyethylene tubes. The cannula was filled with a heparin solution in normal saline (50 IU/kg) through the tip end by using an injector and was ready for use.
The left external jugular vein of the rat was separated and penetrated with a suture at the proximal and distal ends respectively, and the distal end was ligated. An incision was carefully made on the exposed left external jugular vein, and the tip of the bypass cannula prepared as described above was inserted into the proximal end of the incision in the left external jugular vein, away from the stem of the thrombus immobilization screw in the middle segment of the bypass cannula (which accommodated the accurately weighed thrombus immobilization screw). A precise amount of heparin in saline (50 IU/kg) was injected through the tip at the other end by using an injector. At this moment, without removing the injector from the polyethylene tube, the tube between the injector and the polyethylene tube was clamped with a hemostatic clamp. The blood flow was stopped by clamping the proximal end of the right common carotid artery with an arterial clip, and an incision was cut carefully across the common carotid artery near the clip. The injector was pulled out of the polyethylene tube through the tip, and the tip of the polyethylene tube was then inserted into the proximal end of the artery incision. Both ends of the bypass cannula were fixed to the artery or vein with #4 sutures.
A scalp needle was used to pass saline solution, a urokinase in saline solution or varied concentrations of the compounds in saline solution through the middle section of the bypass cannula (which accommodated the accurately weighed thrombus immobilization screw) to a position at the proximal vein and away from the thrombus immobilization screw. The artery clip was then removed to allow blood to flow from the artery to the vein through the bypass cannula. A rat arteriovenous bypass thrombolysis model was thus established. […]

[2] = Superoxide anionic radical scavenging activity (xanthine/xanthine oxidase, DMPO); type: biochemical; details: n = 6
Protocol: […] xanthine was dissolved in 1 mL of pure water to obtain 0.5 M xanthine solution (milk white color, largely insoluble). Commercially available raw solution of xanthine oxidase was diluted 10 folds to obtain solution of xanthine oxidase. Saturated DETAPAC solution was diluted 20 folds to obtain 0.9 mM solution. 11.316 mg DMPO was dissolved in 1 mL of pure water to obtain 0.1 M DMPO solution.
5 μL DMPO solution+5 μL DETAPAC solution+5 μL xanthine solution+5 μL xanthine oxidase solution+5 μL compounds 5Aa-p solution
The first peak height of superoxide anion signal of 5 μL DMPO solution+5 μL DETAPAC solution+5 μL xanthine solution+5 μL xanthine oxidase solution+5 μL water was measured and repeated for 6 times. This peak height defined as the known peak height of superoxide anion signal. The first peak height of superoxide anion signal of 5 μL DMPO solution+5 μL DETAPAC solution+5 μL xanthine solution+5 μL xanthine oxidase solution+5 μL solution of one of compounds 5Aa-p was measured and repeated for 6 times. This peak height defined as the residual peak height of the superoxide anion signal scavenged by one of the compounds 5Aa-p. Scavenging ratio=(known peak height of superoxide anion signal−residual peak height of superoxide anion signal of compounds 5Aa-p)/known peak height of superoxide anion signal

[3] = Hydroxyl free radical scavenging activity (DMPO signal peak height); type: biochemical; details: n = 6; read-out: EC50 of scavenging •OH
Protocol: 11.316 mg DMPO ([…], Sigma) was dissolved in 1 mL of pure water to obtain 0.1 M DMPO solution. […] FeSO4.7H2O was dissolved in 1 mL of pure water to obtain 10 mM solution. 30% medical H2O2 was diluted to 0.2%.
The first peak height of the OH signal of 2.5 μL FeSO4.7H2O solution+2.5 μL DMPO solution+5 μL H2O2 solution+5 μL water was measured and repeated for 6 times. This peak height defined as the known peak height of OH signal. The first peak height of the OH signal of 2.5 μL FeSO4.7H2O solution+2.5 μL DMPO solution+5 μL H2O2 solution+5 μL solution of one of the compounds 5Aa-p was measured and repeated for 6 times. This peak height defined as the residual peak height of the OH signal scavenged by one of the compounds 5Aa-p. Scavenging ratio=(known peak height of OH signal−residual peak height of OH signal of compounds 5Aa-p)/known peak height of OH signal

Row | EC50 [2] [µM] | EC50 [3] [µM] | Structure (SMILES) | Weight reduction in thrombus [1] | Thrombolytic activity, result in words ([1]; intravenous, 0.1 nmol/kg (5Ak also 0.01 and 0.001 nmol/kg), urokinase 20000 U/kg)
1 | 435 ± 65 | 396 ± 48 | C[C@H](NC(=O)[C@@H]1CCCN1)C(=O)N[C@@H](CC(=O)O)C(=O)NCCCC[C@H](NC(=O)[C@@H]1Cc2cc(O)c(O)cc2C(C)(C)N1)C(=O)O [Compound 5Ao, 3S-6,7-dihydroxy-1,1-dimethyl-1,2,3,4-tetrahydro-isoquinoline-3-acyl-Lys(Pro-Ala-Asp)] | 15.86 ± 2.21^a mg | comparable to that of urokinase
2 | 420 ± 73 | 400 ± 51 | C[C@H](NC(=O)[C@@H]1CCCN1)C(=O)N[C@@H](CCC(=O)O)C(=O)NCCCC[C@H](NC(=O)[C@@H]1Cc2cc(O)c(O)cc2C(C)(C)N1)C(=O)O [Compound 5Ap, 3S-6,7-dihydroxy-1,1-dimethyl-1,2,3,4-tetrahydro-isoquinoline-3-acyl-Lys(Pro-Ala-Glu)] | 16.03 ± 2.14^a mg | –
